Source: the NIST ThermoML archive (doi:10.1016/j.jct.2018.11.005)

Settings: Liquid; for mass density: Vibrating tube method; for speed of sound: Frequency=5 MHz, Single path-length method

CCC(=O)[O-].CC[NH2+]CCO [N-ethyl-2-hydroxyethylammonium propionate]
Settings | mass density [kg/m3] | speed of sound [m/s]
298.14 K, 15000 kPa | 1058.3 | –
298.14 K, 30000 kPa | 1063.5 | –
298.15 K, 10000 kPa | 1057 | –
298.15 K, 25000 kPa | 1061.8 | –
298.15 K, 35000 kPa | 1064.6 | –
298.16 K, 100 kPa | 1051.9 | –
298.16 K, 20000 kPa | 1059.9 | –
303.08 K, 35000 kPa | 1060.7 | –
303.12 K, 30000 kPa | 1059.2 | –
303.14 K, 20000 kPa | 1055.6 | –
303.14 K, 25000 kPa | 1057.4 | –
303.15 K, 100 kPa | – | 1566.6
303.15 K, 1000 kPa | – | 1570.6
303.15 K, 2000 kPa | – | 1574.6
303.15 K, 3000 kPa | – | 1578.7
303.15 K, 4000 kPa | – | 1582.8
303.15 K, 5000 kPa | – | 1586.9
303.15 K, 6000 kPa | – | 1589.6
303.15 K, 7000 kPa | – | 1592.4
303.15 K, 8000 kPa | – | 1595.1
303.15 K, 9000 kPa | – | 1599.3
303.15 K, 10000 kPa | 1052.1 | 1603.5
303.15 K, 11000 kPa | – | 1607.7
303.15 K, 12000 kPa | – | 1611.9
303.15 K, 13000 kPa | – | 1616.1
303.15 K, 14000 kPa | – | 1620.3
303.15 K, 15000 kPa | 1053.4 | 1623.2
303.15 K, 16000 kPa | – | 1627.4
303.15 K, 17000 kPa | – | 1631.7
303.15 K, 18000 kPa | – | 1634.6
303.15 K, 19000 kPa | – | 1637.5
303.15 K, 20000 kPa | – | 1640.4
303.16 K, 100 kPa | 1046.7 | –
313.07 K, 25000 kPa | 1047.8 | –
313.07 K, 30000 kPa | 1049.6 | –
313.07 K, 35000 kPa | 1051.4 | –
313.09 K, 10000 kPa | 1041.8 | –
313.09 K, 20000 kPa | 1045.6 | –
313.11 K, 15000 kPa | 1043.2 | –
313.14 K, 100 kPa | 1035.6 | –
313.15 K, 100 kPa | – | 1535.6
313.15 K, 1000 kPa | – | 1539.4
313.15 K, 2000 kPa | – | 1543.3
313.15 K, 3000 kPa | – | 1547.2
313.15 K, 4000 kPa | – | 1552.4
313.15 K, 5000 kPa | – | 1555
313.15 K, 6000 kPa | – | 1560.3
313.15 K, 7000 kPa | – | 1564.2
313.15 K, 8000 kPa | – | 1568.2
313.15 K, 9000 kPa | – | 1572.2
313.15 K, 10000 kPa | – | 1576.2
313.15 K, 11000 kPa | – | 1578.9
313.15 K, 12000 kPa | – | 1583
313.15 K, 13000 kPa | – | 1587.1
313.15 K, 14000 kPa | – | 1591.1
313.15 K, 15000 kPa | – | 1595.3
313.15 K, 16000 kPa | – | 1599.4
313.15 K, 17000 kPa | – | 1603.5
313.15 K, 18000 kPa | – | 1607.7
313.15 K, 19000 kPa | – | 1610.5
313.15 K, 20000 kPa | – | 1614.7
323.15 K, 100 kPa | 1024.4 | 1504.9
323.15 K, 1000 kPa | – | 1508.6
323.15 K, 2000 kPa | – | 1512.4
323.15 K, 3000 kPa | – | 1517.3
323.15 K, 4000 kPa | – | 1522.4
323.15 K, 5000 kPa | – | 1527.4
323.15 K, 6000 kPa | – | 1531.2
323.15 K, 7000 kPa | – | 1535
323.15 K, 8000 kPa | – | 1538.9
323.15 K, 9000 kPa | – | 1542.8
323.15 K, 10000 kPa | – | 1546.6
323.15 K, 11000 kPa | – | 1550.5
323.15 K, 12000 kPa | – | 1555.7
323.15 K, 13000 kPa | – | 1559.7
323.15 K, 14000 kPa | – | 1563.6
323.15 K, 15000 kPa | 1032.6 | 1566.3
323.15 K, 16000 kPa | – | 1570.3
323.15 K, 17000 kPa | – | 1572.9
323.15 K, 18000 kPa | – | 1575.6
